In patent US10350206B2, “Benzyl substituted indazoles as BUB1 inhibitors” (Bayer Pharma Aktiengesellschaft, priority 2014, dated 2019):
pIC50: −log10 of the molar value.

What was measured:
[1] = test system: HeLa human cervical tumor cells; assay: Proliferation assay (HeLa cell line); assay type: cell-based; conditions: 96 h, 4 days incubation, crystal violet, read-out: Biological Assay 2: Proliferation assay (HeLa cell line) median IC50
[2] = test system: Bub1 kinase (histone 2A phosphorylation); assay: H2A Formation-Assay (cell-based mechanistic assay, co-treatment with Nocodazole); conditions: 16 h, Nocodazole 1 μg/ml together with test compound for 16 h; read-out: Biological Assay 4.1: H2A Formation IC50

Compound	pIC50 [1]	pIC50 [2]
COc1cnc(-c2nn(Cc3c(F)cc(OCCO)cc3F)c3ccccc23)nc1Nc1ccnc(C)c1 [Example 2-1-2, 2-{3,5-difluoro-4-[(3-{5-methoxy-4-[(2-methylpyridin-4-yl)amino]pyrimidin-2-yl}-1H-indazol-1-yl)methyl]phenoxy}ethanol]	5.89	8.06
COc1cnccc1Nc1nc(-c2nn(Cc3c(F)cc(OCCO)cc3F)c3ccccc23)ncc1OC [Example 2-1-3, 2-{3,5-difluoro-4-[(3-{5-methoxy-4-[(3-methoxypyridin-4-yl)amino]pyrimidin-2-yl}-1H-indazol-1-yl)methyl]phenoxy}ethanol]	5.77	7.37
